Several values for one entry are separate records, joined by “and”; a condition that tells them apart may be missing. Identical values can stand only once.
Columns and labels:
[1] = target: T1, full-length A/Udorn/72 M2 WT (Influenza A virus, UniProt P0DOF5)
[2] = target: T1, full-length A/Udorn/72 M2 WT; details: 100 μM, mean ± SEM at 2 min of drug perfusion; ref [3]; cited from earlier work
A/WSN/33 = details: plaque reduction assay; cited from earlier work
M2 WT = details: read-out: apparent Ki; block of M2 WT; cited from earlier work

T1 sequence (P0DOF5 whole entry, the tested form may be a part): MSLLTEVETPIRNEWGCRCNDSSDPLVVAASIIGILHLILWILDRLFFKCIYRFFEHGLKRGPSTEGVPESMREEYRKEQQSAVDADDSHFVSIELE

| Compound | Kd ([1]; calculated from the ratio koff/kon) [nM] | koff ([1]; inferred from extent of block and perfusion-limited block rate) [s⁻¹] | Percent Block (%) [2] | EC50 (A/WSN/33) [nM] | Ki (M2 WT) [nM] |
| --- | --- | --- | --- | --- | --- |
| c1csc(-c2cc(CNC34CC5CC(CC(C5)C3)C4)on2)c1 [Compound 6] | > 100000 | > 1 | 11% and 11 ± 1^g % | ~100 |  |
| NC12CC3CC(CC(C3)C1)C2 [Amantadine, amantadine] |  |  |  |  | 300 |

— article PMC8051587 (ACS chemical biology, 2020)
